Measured values from patent US20110230359A1, “LABEL-FREE ON-TARGET PHARMACOLOGY METHODS” (priority 2010, published 2011).

Key:
[1] = test system: GPR109A; test: modulation profiling DMR assay, marker nicotinic acid, A431 cells; type: cell-based, human; details: 10 μM salbutamol pretreatment ~1 hr, 1 μM nicotinic acid
[2] = test system: EGFR; test: modulation profiling DMR assay, marker EGF, A431 cells; type: cell-based, human; details: 10 μM salbutamol pretreatment ~1 hr, 32 nM epidermal growth factor

CC(C)(C)NCC(O)c1ccc(O)c(CO)c1 (centres unmarked) [salbutamol]
modulation of nicotinic acid DMR (P-DMR) [1]: potentiates | modulation of EGF DMR (P-DMR and N-DMR) [2]: little impact
